What was measured:
[1] = tested on: atopic dermatitis patients; settings: 0.15% cream vs cream vehicle and hydrocortisone 17-butyrate (0.1%) cream; cited from earlier work
[2] = tested on: Dinitrofluorobenzene (DNFB)-induced delayed type hypersensitivity (DTH) response in pigs; test: Pig model of atopic dermatitis: DNFB-induced DTH response, skin topical administration; assay type: in vivo
Description: The pig DTH (delayed type hypersensitivity) model of contact hypersensitivity utilizes the Th2-mediated inflammatory response in pig skin to mimic the pathology of atopic dermatitis in humans. The model measures the potential anti-inflammatory effect of compounds, topically-applied to the skin, on the acute DTH (delayed type hypersensitivity) response in castrated male Yorkshire pigs.
In general in the assay, pigs (domestic Yorkshire pigs, 15-18 kg at time of sensitization, castrated males) are first sensitized by topical application of ca. 10% (w/v) dinitrofluorobenzene (DNFB) dissolved in DMSO:acetone:olive oil (ca. 1:5:3) (ca. 40 mg DNFB, 400 microlitre solution total) to the ears (outer) and groin (inner). The pigs are then challenged 12 days later with ca. 0.6% (w/v) DNFB applied to randomized sites on the shaved back of the pigs (ca. 90 micrograms/site; sites are identified and numbered by grid made with marking pen).
On the day of challenge, the treatments are performed at about 2 hours prior to and about 6 hours after challenge (for DMSO/acetone solutions/suspensions, to maximize exposure to drug), or at about 30 minutes after and about 6 hours after challenge (for topical ointments or creams, representing a more clinically relevant treatment protocol).
One day (about 24 hrs) after challenge, and optionally again at ca. 48 hrs post challenge, test sites are visually evaluated for intensity and extent of erythema by measuring the diameter of the reaction at its widest point and assigning scores of 0 to 4 for each of erythema intensity and erythema extent. Induration (a measure of swelling) is also scored 0 to 4. Scores for erythema intensity, erythema extent and induration are assigned according to the following criteria: Intensity of Erythema: 0=normal, 1=minimal, barely visible, 2=mild, 3=moderate, 4=severe. Extent of Erythema (not raised): 0=no edema, 1=macules of pin head size, 2=lentil sized macules, 3=confluent macules, 4=diffuse over entire site. Induration (palpable): 0=normal, 1=nodules of pin head size, 2=doughy lentil sized nodules, 3=confluent firm nodules, 4=diffuse hard lesion. The summed visual score at ca. 24 hours includes the individual scores for erythema intensity, erythema extent, and induration; so the maximal summed score for each site would be 12. High summed scores can generally indicate a high inflammatory response. Visual scores are subject to some inaccuracy/error.
Differences in the summed score between adjacent control (placebo) and treatment sites on the grids are calculated. This difference value is then used to determine the percent inhibition compared to the summed score for the control (placebo) sites. The more negative the difference value, the greater the calculated inhibition. Percent inhibition of (percent inhibition compared to) the mean summed score can be calculated.
About 24 hours after challenge, treatment sites can optionally also be visually evaluated for lesion area.
The anti-inflammatory effect of the compound of formula (I) (“free base” form), applied topically to the skin, on the acute DTH response in castrated male Yorkshire pigs is compared to that of another PDE4 inhibitor cipamfylline (BRL-61063) and the topical immunomodulator pimecrolimus.
In the above assay, the compound of formula (I) is topically administered: either (A) at ca. 2.5% (w/v) concentration in a solution of ca. 10% DMSO/90% acetone (ca. 50 microliters or ca. 1.5 mg/site) at about 2 hours prior to and about 6 hours after the DNFB challenge; or (B) at ca. 0.5% (w/w) concentration in an ointment containing propylene glycol (PG)*(ca. 25 mg of formulation/site) at about 30 minutes after and about 6 hours after the DNFB challenge. […]

COPD patients = settings: cilomilast: 15 mg orally twice daily; cited from earlier work

## Nc1nc2c([nH]1)c(=O)n(CC1CC1)c(=O)n2CC1CC1 [cipamfylline, reference compound]
[1]
  efficacy in treatment of atopic dermatitis patients: significantly more effective than vehicle, but significantly less effective than hydrocortisone 17-butyrate (0.1%) cream
[2]; ca. 0.25% (w/w) in ointment, not statistically significant
  reduction in summed scores: 6-7%
[2]; ca. 2.5% (w/v) in DMSO/acetone solution, vs vehicle alone, ca. 24 h after challenge
  reduction in mean summed score: about 8%

## COc1ccc([C@]2(C#N)CC[C@@H](C(=O)O)CC2)cc1OC1CCCC1 [cilomilast]
COPD patients
  forced expiratory volume in 1s (FEV1) in COPD patients: appears to improve forced expiratory volume in 1s (FEV1)

## CC[C@@H]1/C=C(\C)C[C@H](C)C[C@H](OC)[C@H]2O[C@@](O)(C(=O)C(=O)N3CCCC[C@H]3C(=O)O[C@H](/C(C)=C/[C@@H]3CC[C@H](Cl)[C@H](OC)C3)[C@H](C)[C@@H](O)CC1=O)[C@H](C)C[C@@H]2OC [pimecrolimus, reference compound]
[2]; 1% (w/w) cream formulation, p<0.05 by ANOVA
  inhibition of summed scores: about 29%

From US7709497B2, “Pyrazolo[3,4-b]pyridine compound, and its use as a PDE4 inhibitor” (Glaxo Group Limited, priority 2004, dated 2010)
